Experimental findings from patent US6716829B2, “Aldosterone antagonist and cyclooxygenase-2 inhibitor combination therapy to prevent or treat inflammation-related cardiovascular disorders” (Pharmacia Corporation, priority 2000, dated 2004) are described below.

Test [1] has as its system aldosterone-infused, saline-drinking, uni-nephrectomized rats. In words: Assay B: heart histology (hematoxylin&eosin), vascular inflammatory lesions and myocardial injury. Conditions: eplerenone 100 mpk p.o., 0.6% KCl group, 4 weeks. In kind it is in vivo, Male Sprague Dawley rats. The procedure: Assay B: In Vivo Aldosterone Infusion Model Male Sprague Dawley rats (n=39; BW=250 g) […] Uni-nephrectomy performed during implantation of mini-pumps 2. Aldosterone ([…], sc via alzet minipump) 2. […] 1. […] Sacrifice after 4 weeks. Hearts were harvested and divided by half through a transverse section at the mid-ventricles: The upper half was stored into formalin. The bottom part was snap-frozen in liquid nitrogen for biochemical analysis. Hearts were stained with hematoxylin&eosin and the collagen specific dye picro-sirius red and were analyzed for determination of interstitial collagen volume fraction and morphologic abnormalities (i.e. necrosis, vascular injury).

The test system of another test is osteopontin. The test is described as follows: Assay B: osteopontin immunohistochemistry in the heart. It counts as in vivo, Male Sprague Dawley rats. Conditions: aldosterone-infused rats; eplerenone 100 mpk; increased dietary potassium group. The procedure:
Assay B: In Vivo Aldosterone Infusion Model Male Sprague Dawley rats (n=39; BW=250 g) 2. Aldosterone (0.75 mg/hr, sc via alzet minipump) 2. […] Determination of osteopontin and COX-2 was performed by quantitative RT-PCR (Taqman). Osteopontin was also identified in the heart by immunohistochemistry.

For test [2], the system named is coronary arteries of angiotensin II/salt-treated animals. The test is described as follows: Assay A: heart histology (hematoxylin&eosin), vascular inflammatory lesions and myocardial injury. It counts as in vivo, Male Wistar rats. As to conditions: of ten animals per group; angiotensin II/salt; eplerenone 100 mpk; 4 weeks. An excerpt:
Sacrifice by exanguination after 4 weeks. Blood was be collected in dry tubes for determination of serum electrolytes and in EDTA-containing tubes for measurement of aldosterone and corticosterone levels Hearts were stained with hematoxylin&eosin and have been analyzed for determination of morphologic abnormalities (i.e. necrosis, vascular injury).

Test [3] deals with angiotensin II infused rats. In words: Assay A, angiotensin II infusion model: systolic blood pressure by tail-cuff. As to conditions: angiotensin II 25 ng/min sc, 1% NaCl; eplerenone 100 mpk; aldosterone in adrenalectomized rats; 4 weeks. In kind it is in vivo, Male Wistar rats. The procedure: Human cardiovascular disorders are complex conditions, often initiated by vascular hypertension or a myocardial infarction (MI). In order to determine the probable effectiveness of a therapy for cardiovascular disorders, it is important to determine the potency of components in several assays. Accordingly, in Assay “A”, the efficacy of the aldosterone antagonist epeplerenone (epoxymexrenone) was determined in a hypertensive rat model with vascular inflammation, using angiotensin II infusion. In Assay “B” a study is described evaluating the efficacy of the aldosterone antagonist epeplerenone (epoxymexrenone) in a rat model using aldosterone infusion to produce hypertension with vascular inflammation. In Assay “C” a further study is described evaluating the efficacy of the aldosterone antagonist epeplerenone (epoxymexrenone) in a rat model using aldosterone infusion to produce hypertension with vascular inflammation.
Assay A: In Vivo Angiotensin II Infusion Model
Male Wistar rats (n=50, 10/group; BW=200 g)
SBP measured by tail-cuff every week

In the case of `[Cl-].[K+]` [dietary potassium], the “Vascular inflammatory changes / myocardial injury” value in test [1] is given as “did not have significant effects”. Also, the “Osteopontin expression in the heart (immunostaining)” value in the test with osteopontin is on record as “did not reduce osteopontin expression”.

As for “angiotensin II: infused 25 ng/min sc via alzet minipump to produce hypertensive rat model with vascular inflammation (DRVYIHPF; Angiotensin-2; UniProt P01015 25-32, looked up)”, the “Animals with vascular inflammatory changes (lesions) in the coronary arteries” value in test [2] is “Seven out of the ten”. In addition, the Systolic Blood Pressure result in test [3] is “increased”.
